Measurements taken from PubChem BioAssay (NCI).
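Assay format: 96-well plates, 48-hour exposure. Here, GI50 denotes the concentration required for 50% inhibition of growth. Definition used: TGI = concentration required for complete inhibition of growth.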

What follows are molecules tested on MDA-MB-468 breast (assay: growth of human tumour cells (NCI), 48 h).
For `Cc1ccccc1S(=O)(=O)N1[C@H](c2ccc(Cl)cc2)C(C(=O)N[C@@H](Cc2ccccc2)C(N)=O)=C[C@@H]1C(C)(C)C`, the GI50 was 4130 nM and the TGI was 12500 nM.
For `CCOCC(=O)N[C@H]1CCc2cc(OC)c(OC)c(OC)c2-c2ccc(SC)c(=O)cc21`, the GI50 was less than 10 nM and the TGI was greater than 100000 nM.
`COc1cc(C(=O)/C=C/c2c(-c3ccc(F)cc3)nc3sc(C)cn23)cc(OC)c1OC` showed a GI50 of 2380 nM and a TGI greater than 100000 nM.
`Nc1nc2c(c3ncccc13)C(c1ccc(Cl)c(Cl)c1)Cc1ncccc1-2` (centres undefined) gave a GI50 of 3250 nM and a TGI of 11200 nM.
For `NS(=O)(=O)c1ccc(C2C3=C(CCCC3=O)OC3=C2C(=O)c2ccccc2C3=O)cc1` (centres undefined), the GI50 was 231 nM and the TGI was 671 nM.
Molecule `CNc1nc(C)c(-c2nc(Nc3cccc(S(N)(=O)=O)c3)ncc2F)s1` has a GI50 of 35.4 nM and a TGI of 116 nM.
In the case of `C[C@@H]1COCCN1c1nc(-c2cnc(N)cc2C(F)F)nc(N2[C@H](C)COC[C@@H]2C)n1`, the GI50 is reported as 185 nM and the TGI is reported as 1620 nM.
`COc1cc2c(c(OC)c1OC)-c1ccc(NNC(=S)N(Cc3cccc(C[N+](Cc4cccc(CNC56CC7CC(CC(C7)C5)C6)c4)(Cc4cccc(CNC56CC7CC(CC(C7)C5)C6)c4)Cc4cccc(CN(C(=S)NNc5ccc6c(cc5=O)[C@@H](NC(C)=O)CCc5cc(OC)c(OC)c(OC)c5-6)C56CC7CC(CC(C7)C5)C6)c4)c3)C34CC5CC(CC(C5)C3)C4)c(=O)cc1[C@@H](NC(C)=O)CC2` (some centres undefined) was tested, and the GI50 was 657 nM and the TGI was 1750 nM.
With `O=S1(=O)N(Cc2ccccc2)[C@@H](Cc2ccccc2)C2O[C@H]2[C@H](Cc2ccccc2)N1Cc1ccccc1` (some centres undefined) the GI50 was 274 nM and the TGI was greater than 7500 nM.
Molecule `CCCCCCCCCCCCCCCC(=O)OCC1OC(n2cnc3c(=S)nc(N)[nH]c32)C(OC(=O)CCCCCCCCCCCCCCC)C1OC(=O)CCCCCCCCCCCCCCC` (centres undefined) has a GI50 of 1390 nM and a TGI greater than 50000 nM.
`CCc1ccc(-c2ccc(=O)n(-c3ccc(S(N)(=O)=O)cc3)n2)cc1` showed a GI50 of 3180 nM and a TGI greater than 100000 nM.
In the case of `COC(=O)Nc1nc2ccc(Oc3ccc(NC(=O)Nc4cccc(Br)c4)cc3)cc2[nH]1`, the GI50 is reported as 1290 nM and the TGI is reported as 6280 nM.
`CC/C=C\C/C=C\C[C@H](O)C/C=C1/C(=O)C=C[C@H]1C/C=C\CCC(=O)OC` gave a GI50 of 1560 nM and a TGI of 4740 nM.
With `O=c1[nH]cnc2c1nnn2C1OC(CO)C(O)C1O` (centres undefined) the GI50 was 577 nM and the TGI was 22000 nM.
For `N#Cc1ccc(/C=N/NC(=O)c2[nH]c3ccc(Br)cc3c2-c2ccccc2)s1`, the GI50 was 292 nM and the TGI was 10300 nM.
Work on `COc1cc([C@@H]2c3cc4c(cc3C(Br)[C@H]3COC(=O)[C@H]23)OCO4)cc(OC)c1OC` (some centres undefined) yielded a GI50 of 175 nM and a TGI of 625 nM.
Molecule `COc1ccc(C2=CC(c3cc(OC)c(OC)c(OC)c3)NC(=O)N2)cc1OC` (centres undefined) has a GI50 of 3210 nM and a TGI of 15100 nM.
Molecule `COc1ccc(C(O)c2cc3c(N)c(C(=O)Nc4cccc(Cl)c4C)sc3nc2C)cc1` (centres undefined) has a GI50 of 742 nM and a TGI of 1480 nM.
Work on `CCCCCCOc1ccc(/C=N/NC(N)=S)cc1` yielded a GI50 of 6390 nM and a TGI of 32700 nM.
With `NC(=O)C(Br)CBr` (centres undefined) the GI50 was 1460 nM and the TGI was 4350 nM.
`C=C1C(=O)O[C@H]2[C@H]1CC/C(CNC(=O)/C=C/c1cccc(OC)c1)=C\CC[C@@]1(C)O[C@@H]21` showed a GI50 of 485 nM and a TGI of 2130 nM.
`N#Cc1cccc(C(=O)c2cnn(-c3ccc(F)cc3)c2N)c1` showed a GI50 greater than 25000 nM and a TGI greater than 25000 nM.
`Nc1c(C(=O)c2cccc(-c3ccc[n+]([O-])c3)c2)cnn1-c1ccc(F)cc1F` was tested, and the GI50 was greater than 25000 nM and the TGI was greater than 25000 nM.
Work on `CCN(CC)CCOc1ccc(Nc2ncc3cc(-c4c(Cl)cccc4Cl)c(=O)n(CCOC)c3n2)cc1` yielded a GI50 of 1260 nM and a TGI of 3990 nM.
Work on `c1cc(C2CCCCC2)ccc1OCCCCCCN1CCNCC1` yielded a GI50 of 1910 nM and a TGI of 3670 nM.
Molecule `Cc1[nH]c(C(=O)Nc2ccc(C(=O)N3CCNCC3)cc2OC(C)C)c(Cl)c1Cl` has a GI50 of 1670 nM and a TGI of 3180 nM.
`CCCCCCCCCCCCCC[P+](CCCCCC)(CCCCCC)CCCCCC` showed a GI50 of 36.6 nM and a TGI of 175 nM.
For `CCN(CC)c1ccc(N=C2C=C(C(=O)Nc3ccc(S(C)(=O)=O)cc3)C(=O)c3ccccc32)c(C)c1`, the GI50 was greater than 100000 nM and the TGI was greater than 100000 nM.
Work on `O=CN1N=C(c2ccc(Nc3ccnc4cc(Cl)ccc34)cc2)CC1c1ccccc1` (centres undefined) yielded a GI50 of 975 nM and a TGI of 3150 nM.
For `CCOC(=O)c1c2c(n3ccc(NC(=O)OC(C)(C)C)cc13)C(=O)c1ncccc1C2=O`, the GI50 was 1330 nM and the TGI was 3820 nM.
For `CC1=C(C(=O)Nc2ccc3[nH]ncc3c2)C(c2ccc(F)cc2)NC(=O)N1` (centres undefined), the GI50 was greater than 25000 nM and the TGI was greater than 25000 nM.
Work on `Cc1nc2cncc(C#Cc3cncc(C(=O)Nc4ccc(CN5CCN(C)CC5)c(C(F)(F)F)c4)c3)c2nc1C` yielded a GI50 of 949 nM and a TGI of 7340 nM.
Work on `CNC(=O)c1c(NC(=O)c2cccc(C(F)(F)F)c2)sc2c1CCC(=O)C2` yielded a GI50 of 396 nM and a TGI of 2300 nM.
`N#Cc1c2ccccc2c2n1-c1ccccc1OC(c1ccccc1)C2=O` (centres undefined) was tested, and the GI50 was 3260 nM and the TGI was 13100 nM.
Work on `CCOC(=O)c1cc2c(n1Cc1cc(OC)cc(OC)c1)-c1oncc1CCC2` yielded a GI50 of 47.4 nM and a TGI greater than 100000 nM.
Molecule `CSc1ccc(-c2cc(-c3ccc(NC(=O)CCCN4CCCC4)cc3)nc(-c3ccc(NC(=O)CCCN4CCCC4)cc3)c2)cc1` has a GI50 of 1560 nM and a TGI of 3030 nM.
For `COc1ccc(Nc2ncccc2/C=C/C(=O)c2cc(OC)c(OC)c(OC)c2)cc1`, the GI50 was 1150 nM and the TGI was 2440 nM.
`COc1ccc(-c2nsc3c2NC(=O)CC3c2ccc3c(c2)OCO3)cc1` (centres undefined) was tested, and the GI50 was 612 nM and the TGI was 25900 nM.
`COc1ccc(Nc2ccnc(NCCNc3ccnc4cc(Cl)ccc34)n2)cc1` showed a GI50 of 997 nM and a TGI of 3220 nM.
Work on `C=C1C(=O)O[C@H]2[C@H]1CC/C(CNS(=O)(=O)c1ccc3ccccc3c1)=C\CC[C@@]1(C)O[C@@H]21` yielded a GI50 of 363 nM and a TGI of 1620 nM.
Work on `Fc1ccc(C2CC(c3cccc(Nc4ccncc4)c3)=NN2c2cc(Cl)cc(Cl)c2)cc1` (centres undefined) yielded a GI50 of 1760 nM and a TGI of 3720 nM.
With `CN(C)C(=S)NN=C(c1ccccn1)c1ccccn1` the GI50 was less than 10 nM and the TGI was 24000 nM.
For `COc1cc2c(cc1OCCCOC1=C=C=C(c3ccc4c(c3)c3cc(-c5ccc(OCCCOc6cc7c(cc6OC)C(=O)N6CCC[C@H]6C=N7)cc5)ccc3n4S(=O)(=O)c3ccc(C)cc3)C=C1)N=C[C@@H]1CCCN1C2=O`, the GI50 was 1040 nM and the TGI was 3040 nM.
`O=C1C2=C(C(=O)c3c(O)cccc31)C(c1ccco1)c1sc(=O)[nH]c1S2` (centres undefined) gave a GI50 of 2010 nM and a TGI of 6590 nM.
Work on `O=C(Nc1ncc(Cc2ccccc2)s1)c1ccc2c(c1)OCCCO2` yielded a GI50 of 413 nM and a TGI greater than 100000 nM.
Work on `Cn1c(=O)c(Oc2cccc(F)c2)cc2cnc(NC3CCOCC3)nc21` yielded a GI50 greater than 25000 nM and a TGI greater than 25000 nM.
In the case of `CN(C)c1ccc(C(=O)c2ccc(N(C)C)c(N)c2)cc1N`, the GI50 is reported as 781 nM and the TGI is reported as 4720 nM.
Work on `Nc1ccc(N=Nc2ccccc2)c(N)n1` yielded a GI50 of 16200 nM and a TGI of 60900 nM.
`Nc1ccccc1NC(=O)CCCCCCC(=O)Nc1ccc2c(c1)/C(=C/c1ccc[nH]1)C(=O)N2` gave a GI50 of 1830 nM and a TGI greater than 100000 nM.
`O=C(CCCCCCNC(=O)C(O)(O)C(F)(F)F)Nc1ncc(-c2ccc(Br)cc2)s1` showed a GI50 of 752 nM and a TGI of 5350 nM.
With `OCc1cccc(-c2ccc3ncc(-c4nc(NC5CC5)ncc4F)n3c2)c1` the GI50 was 250 nM and the TGI was 603 nM.
Molecule `O=C1c2ccccc2-c2nccc3cc(Cl)nc1c23` has a GI50 of 230 nM and a TGI of 602 nM.
